Data as given in ChEMBL document CHEMBL1201862, “PubChem BioAssay data set” (2004).
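Protocol summary: plate cells (96-well), add compound at 5 concentrations, incubate 48 h, interpolate endpoints linearly. Here, GI50 denotes the concentration required for 50% inhibition of growth.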 Active and inactive are the calls of the source. Cut-off read from the data, not from the text of the source: active = GI50 up to about 1.1 µM and inactive = higher.

Columns and labels:
Experiment in all cases: inhibition of tumour cell growth, NCI panel, 48 h
UO-31 = tested on: UO-31
SK-MEL-28 = tested on: SK-MEL-28
KM12 = tested on: KM12
NCI-H460 = tested on: NCI-H460
T47D = tested on: T47D
SK-MEL-5 = tested on: SK-MEL-5
HCT-116 = tested on: HCT-116
SF-268 = tested on: SF-268
COLO 205 = tested on: COLO 205
UACC-62 = tested on: UACC-62
RXF 393 = tested on: RXF 393
U-251 = tested on: U-251
NCI-H23 = tested on: NCI-H23
SNB-19 = tested on: SNB-19
RPMI-8226 = tested on: RPMI-8226
SK-OV-3 = tested on: SK-OV-3
SR = tested on: SR
UACC-257 = tested on: UACC-257
Malme-3M = tested on: Malme-3M
IGROV-1 = tested on: IGROV-1

Compound | GI50 (UO-31) | GI50 (SK-MEL-28) | GI50 (KM12) | GI50 (NCI-H460) | GI50 (T47D) | GI50 (SK-MEL-5) | GI50 (HCT-116) | GI50 (SF-268) | GI50 (COLO 205) | GI50 (UACC-62) | GI50 (RXF 393) | GI50 (U-251) | GI50 (NCI-H23) | GI50 (SNB-19) | GI50 (RPMI-8226) | GI50 (SK-OV-3) | GI50 (SR) | GI50 (UACC-257) | GI50 (Malme-3M) | GI50 (IGROV-1)
COc1ccc2c(c1)CCCc1c-2nc2ccccc2c1N | 5.35 µM (inactive) | 10.8 µM (inactive) | 14 µM (inactive) | 4.44 µM (inactive) | 12.4 µM (inactive) | 3.72 µM (inactive) | 5.81 µM (inactive) | 15.3 µM (inactive) | 1.69 µM (inactive) | 12.3 µM (inactive) | 4.72 µM (inactive) | 12.7 µM (inactive) | 15.4 µM (inactive) | 15.9 µM (inactive) | 5.87 µM (inactive) | 10.4 µM (inactive) | 2.57 µM (inactive) | 2.45 µM (inactive) | 14.1 µM (inactive) | 12.4 µM (inactive)
O=C(O)c1nn(-c2ccccc2)nc1-c1nn(-c2ccccc2)nc1C(=O)O | > 100 µM (inactive) | > 100 µM (inactive) | > 100 µM (inactive) | > 100 µM (inactive) | > 100 µM (inactive) | > 100 µM (inactive) | > 100 µM (inactive) | > 100 µM (inactive) | > 100 µM (inactive) | > 100 µM (inactive) | > 100 µM (inactive) | > 100 µM (inactive) | > 100 µM (inactive) | > 100 µM (inactive) | > 100 µM (inactive) | > 100 µM (inactive) | > 100 µM (inactive) | > 100 µM (inactive) | > 100 µM (inactive) | > 100 µM (inactive)
CCCCCCCCCCCCCCCCOCC(O)CO (centres undefined) | 17.1 µM (inactive) | 18.6 µM (inactive) | 17.4 µM (inactive) | 19.9 µM (inactive) | 23.4 µM (inactive) | 27.5 µM (inactive) | 19.4 µM (inactive) | 17.1 µM (inactive) | 22.1 µM (inactive) | 17 µM (inactive) | 16.2 µM (inactive) | 19 µM (inactive) | 17.9 µM (inactive) | 24 µM (inactive) | 14.8 µM (inactive) | 16.6 µM (inactive) | 10.3 µM (inactive) | 19.1 µM (inactive) | 19.2 µM (inactive) | 16.3 µM (inactive)
O=C(Cn1cc(Br)c(=O)[nH]c1=O)c1ccc(-c2ccccc2)cc1 | > 100 µM (inactive) | > 14.3 µM (inactive) | > 14.6 µM (inactive) | > 15.9 µM (inactive) | > 100 µM (inactive) | > 15.6 µM (inactive) | > 16 µM (inactive) | 4.71 µM (inactive) | > 16.4 µM (inactive) | > 100 µM (inactive) | 63 µM (inactive) | 5.31 µM (inactive) | 16.4 µM (inactive) | 2.25 µM (inactive) | 15.3 µM (inactive) | > 58.6 µM (inactive) | > 17 µM (inactive) | 15.9 µM (inactive) | > 26.5 µM (inactive) | 15.7 µM (inactive)
NC(=O)CC(/N=C1\C(=O)OC(C(O)CO)\C1=N/C(CC(N)=O)C(=O)O)C(=O)O (centres undefined) | > 100 µM (inactive) | > 100 µM (inactive) | > 100 µM (inactive) | > 100 µM (inactive) | > 100 µM (inactive) | > 100 µM (inactive) | > 100 µM (inactive) | > 100 µM (inactive) | > 100 µM (inactive) | > 100 µM (inactive) | > 100 µM (inactive) | > 100 µM (inactive) | > 100 µM (inactive) | > 100 µM (inactive) | > 100 µM (inactive) | > 100 µM (inactive) | > 100 µM (inactive) | > 100 µM (inactive) | > 100 µM (inactive) | > 100 µM (inactive)
O=C(NCCNCCCNC(=O)c1cc(-c2ccccc2)nc2ccccc12)c1cccc(OCc2ccccc2)c1OCc1ccccc1 | 1.66 µM (inactive) | 1.81 µM (inactive) | 1.83 µM (inactive) | 2.13 µM (inactive) | 2.18 µM (inactive) | 1.71 µM (inactive) | 1.71 µM (inactive) | 1.88 µM (inactive) | 1.69 µM (inactive) | 1.93 µM (inactive) | 2.13 µM (inactive) | 1.94 µM (inactive) | 1.83 µM (inactive) | 1.78 µM (inactive) | 2.48 µM (inactive) | 1.71 µM (inactive) | 0.889 µM (active) | 1.83 µM (inactive) | 2.07 µM (inactive) | 1.85 µM (inactive)
CCOP(=O)(CCCC(O)CNc1nc(N)nc(Cl)c1/N=N/c1ccc(Cl)cc1)OCC (centres undefined) | 3.56 µM (inactive) | 8.22 µM (inactive) | 11.2 µM (inactive) | 11.1 µM (inactive) | 5.09 µM (inactive) | 4.66 µM (inactive) | 8.28 µM (inactive) | 4.27 µM (inactive) | 6.64 µM (inactive) | 5.13 µM (inactive) | 5.24 µM (inactive) | 8.57 µM (inactive) | 12.1 µM (inactive) | 10.6 µM (inactive) | 2.82 µM (inactive) | 3.19 µM (inactive) | 2.64 µM (inactive) | 5.38 µM (inactive) | 7.64 µM (inactive) | 11.9 µM (inactive)
Cc1ccc2c(c1)/C(=N/Nc1ccccc1[N+](=O)[O-])C(=O)N2 | 2.05 µM (inactive) | > 100 µM (inactive) | 4.19 µM (inactive) | 3.89 µM (inactive) | 2.83 µM (inactive) | 7.35 µM (inactive) | 3.01 µM (inactive) | 3.4 µM (inactive) | 14.6 µM (inactive) | 35.5 µM (inactive) | 6.52 µM (inactive) | 4.07 µM (inactive) | 7.76 µM (inactive) | 37.2 µM (inactive) | 6.73 µM (inactive) | 4.68 µM (inactive) | 4.06 µM (inactive) | 13.9 µM (inactive) | 3.48 µM (inactive) | 1.68 µM (inactive)
O=C(Cc1csc2[n+]1C(=O)/C(=C/c1ccc(Cl)cc1)S2)Nc1ccccc1 | 21.9 µM (inactive) | 30.4 µM (inactive) | 22.5 µM (inactive) | 18.7 µM (inactive) | 16.4 µM (inactive) | 10.9 µM (inactive) | 16.8 µM (inactive) | 21.5 µM (inactive) | 14.9 µM (inactive) | 10 µM (inactive) | 18.3 µM (inactive) | 16.2 µM (inactive) | 24.2 µM (inactive) | 34.9 µM (inactive) | 23.4 µM (inactive) | 19.4 µM (inactive) | 24.3 µM (inactive) | 19.2 µM (inactive) | 30.1 µM (inactive) | 16.9 µM (inactive)
O=C(O)C1C(Br)(c2ccccc2)C1(Br)c1ccccc1 (centres undefined) | 16.2 µM (inactive) | 21.5 µM (inactive) | 33.4 µM (inactive) | 14.2 µM (inactive) | 17.6 µM (inactive) | 28.8 µM (inactive) | 39.7 µM (inactive) | 24.3 µM (inactive) | 13.4 µM (inactive) | 17.9 µM (inactive) | 19.5 µM (inactive) | 27.6 µM (inactive) | 38.4 µM (inactive) | 27.4 µM (inactive) | 11.8 µM (inactive) | 27.5 µM (inactive) | 2.88 µM (inactive) | 48.9 µM (inactive) | 35.6 µM (inactive) | 17.8 µM (inactive)
CCCCCCC/C=C1\CCC(CN(C)C)C1=O (centres undefined) | 15.6 µM (inactive) | 16.9 µM (inactive) | 4.07 µM (inactive) | 19.1 µM (inactive) | 2.98 µM (inactive) | 18.7 µM (inactive) | 7.23 µM (inactive) | 17.4 µM (inactive) | 10.2 µM (inactive) | 14.6 µM (inactive) | 5.93 µM (inactive) | 17.5 µM (inactive) | 16.4 µM (inactive) | 16.9 µM (inactive) | 0.968 µM (active) | 23.7 µM (inactive) | 3.47 µM (inactive) | 15.1 µM (inactive) | 10.8 µM (inactive) | 19.1 µM (inactive)
CC1CCC2(CC1)NC1=C(CC(C)CC1)C1=C2CC(C)CC1 (centres undefined) | 20.3 µM (inactive) | 17.7 µM (inactive) | 18.1 µM (inactive) | 23.8 µM (inactive) | 24.3 µM (inactive) | 12.1 µM (inactive) | 14.8 µM (inactive) |  | 20.4 µM (inactive) | > 10 µM (inactive) | 15.8 µM (inactive) | 18.4 µM (inactive) | 20.8 µM (inactive) | 23.5 µM (inactive) | 23.3 µM (inactive) | 38.8 µM (inactive) | 21.8 µM (inactive) | 25.3 µM (inactive) | 26.9 µM (inactive) | 31.3 µM (inactive)
Cc1cc(NC2=NCCO2)c2c(c1C)CCCC2 | 1.91 µM (inactive) | 15.4 µM (inactive) | 13.2 µM (inactive) | 11.7 µM (inactive) | 13.6 µM (inactive) | 15.7 µM (inactive) | 15.2 µM (inactive) | 18.9 µM (inactive) | 17.1 µM (inactive) | 15.2 µM (inactive) | 39.3 µM (inactive) | 18.5 µM (inactive) | 18 µM (inactive) | 11.2 µM (inactive) | 12.6 µM (inactive) | 20.4 µM (inactive) | 18.5 µM (inactive) | 9.33 µM (inactive) | 11.6 µM (inactive) | 21.8 µM (inactive)
[N-]=[N+]=NCc1nc(N)c2c3c(sc2n1)CCCC3 | 0.0532 µM (active) | 7.16 µM (inactive) | 0.979 µM (active) | 3.43 µM (inactive) | 6.85 µM (inactive) | 1.36 µM (inactive) | 2.52 µM (inactive) | 2.32 µM (inactive) | 3.78 µM (inactive) | 5.06 µM (inactive) | 5.4 µM (inactive) | 2.47 µM (inactive) | 1.3 µM (inactive) | 4.97 µM (inactive) | 2.19 µM (inactive) | 11.6 µM (inactive) | 4.99 µM (inactive) | 4.22 µM (inactive) | 1.55 µM (inactive) | 1.2 µM (inactive)
